According to patent US20240383910A1, “SMALL MOLECULE BTK DEGRADERS AND METHODS OF USE THEREOF” (Baylor College of Medicine, priority 2023, published 2024):
“And” between values parts separate entries of the source, which are not always exact repeats. Identical values can stand only once. Blank lines part the entries; values can stand above or below the compound they belong to.

How the values were obtained:
BTK [1] = biological target: T1, BTK (Homo sapiens, UniProt Q06187); test: BTK ligand competition assay in Ramos cells (Western blotting for BTK); type: cell-based; set-up: host or cells: Ramos; conditions: co-treated with 100 nM PS-2, 24 hours, PS2W at 50 μM
His-BTK = biological target: T2, His-BTK (Homo sapiens, UniProt Q06187); test: TR-FRET competition binding assay with BTK-BODIPY tracer; conditions: for IC50: TR-FRET, 2 nM His-BTK, 150 nM BTK-BODIPY tracer, 2 h incubation; for binding to BTK (result in words): TRFRET assay, up to 100 μM
T2 construct: purchased SignalChem B10-10H-10
Procedure: (§1) Panels a-b. […] Panel c. […] Panel d. […] Panel e. […] Panel f.
Time-resolved fluorescence resonance energy transfer (TR-FRET) assay was carried out to evaluate the binding of indicated compounds and BTK by competition with a BODIPY-FL labeled BTK tracer (See FIG. 1, BTK TR-FRET tracer). The assay was performed in 20 μL assay buffer (50 mM Tris, pH7.5, 0.1% Triton X-100, 0.01% BSA, and 1 mM DTT) with 0.3 nM Tb-anti-His (Cisbio, Cat. No. 61HI2TLA), 2 nM His-BTK (SignalChem, Cat. No. […] Unless specified otherwise, all assays were performed in triplicates. The assay mixtures were incubated at room temperature in the dark for 120 min, unless specified otherwise, and the signals were collected using a BioTek Synergy H1 microplate reader to measure the fluorescence emission ratio ([…]) of each well, using a 340-nm excitation filter, a 100-μs delay, and a 200-μs integration time. Raw data from the plate reader were used directly for analysis. The curve-fitting software GraphPad Prism 9 was used to generate graphs and curves and to determine IC50 values.
To measure the binding affinities between PROTACs and BTK, a time-resolved fluorescence resonance energy transfer (TR-FRET) competition binding assay was developed. A BTK tracer was synthesized by conjugating an ibrutinib-based reversible noncovalent binder with the BODIPY-FL dye (FIG. 1). […] In the presence of the BTK tracer, competition assays were performed to measure the binding affinities between BTK and its inhibitors and PROTACs. […] The very weak BTK binding affinities for PS-RC-1, PS-RC-2, PS-RC-3 and PS-RC-4 explain their minimal BTK degradation effects in cells and further support that the observed growth inhibitory effect of PS-RC-1 in Mino cells is unrelated to the BTK pathway.

MOLM-14 cells = test: Alarma Blue cell viability assay, MOLM14 cells; type: cell-based; conditions: Homo sapiens, 72 h, read-out: IC50, cell growth inhibition
Text: as §1

GSPT1 = biological target: T3, GSPT1 (Homo sapiens, UniProt P15170+Q96SW2); test: Western blotting for GSPT1 in Mino cells; type: cell-based; conditions: up to 1000 nM, 24 h, Western blot
T3 construct: host or cells: Mino
Procedure: (§2) Panel a. […] Panel b. […] Panel c. […] Panel d-e. […] Panel g.
Mino cells were seeded into the wells of six-well plates at the density of 5×10^5 cells per mL in 2 mL of complete RPMI-1640 culture medium. After overnight adaptation, cells were treated with serially diluted compounds (from 1,000-1.6 nM, 5-fold dilution) for 24 hours. After treatment, whole cell lysates for immunoblotting were prepared by pelleting Mino cells at 4° C. and 200×g for 5 minutes. The resulting cell pellets were washed once with ice-cold PBS and lysed in 1×RIPA lysis buffer (Alfa Aesar, Cat. No. J62524) supplemented with protease and phosphatase inhibitor cocktail (Thermo Fisher, Cat. No. 78430). Lysates were centrifuged at 15,000×g for 10 min at 4° C. and protein concentrations were assessed using BCA assay (Pierce, Cat. No. 23225). Same amounts of protein (30 μg) for each sample were loaded onto sodium dodecyl sulfate-polyacrylamide gel, separated by electrophoresis (Bio-Rad) at 120 V for 1.5 h and transferred to PVDF membrane using a Transblot Turbo system (Bio-Rad). […] All Western blots were subsequently processed and quantified with Imager software ImageJ and protein level was normalized to the B-actin loading controls.

MM.1S cells = test: Alarma Blue cell viability assay, MM.1S cells; type: cell-based; conditions: Homo sapiens, MM1.S, 120 h, read-out: IC50, cell growth inhibition
Text: as §2

BTK [2] = biological target: T4, BTK (Mus musculus, UniProt P35991); test: Western blotting for BTK in A20 cells; type: cell-based; conditions: A20 cells, 40, 200 and 1000 nM, 24 h, Western blot
T4 construct: host or cells: A20
Procedure: (§3) CC-220 is a IKZF1/3 degrader developed by Celgene and used for comparison.
(§4) In contrast, PS-3, whose warhead is further reduced compared with PS-2, loses its ability to function as either a BTK degrader or a potent IKZF1/3 molecular glue. To confirm this observation, BTK degradation induced by PS-1, PS-2, and PS-3 was tested in both a human B lymphocyte cell line Ramos and mouse BALB/c B cell lymphoma line A20, with DD-03-171 from the Gray group as a positive control (FIG. 5).

Mino cells = test: cells; conditions: Homo sapiens, 72 h, read-out: IC50, cell growth inhibition / cell viability, Mino cells, 72 h
BTK [3] = biological target: T1, BTK; test: Western blotting for BTK in Ramos cells; type: cell-based; set-up: host or cells: Ramos; conditions: Ramos cells, 40, 200 and 1000 nM, 24 h, Western blot
Procedure: as §3, §4

T2 sequence (Q06187 whole entry): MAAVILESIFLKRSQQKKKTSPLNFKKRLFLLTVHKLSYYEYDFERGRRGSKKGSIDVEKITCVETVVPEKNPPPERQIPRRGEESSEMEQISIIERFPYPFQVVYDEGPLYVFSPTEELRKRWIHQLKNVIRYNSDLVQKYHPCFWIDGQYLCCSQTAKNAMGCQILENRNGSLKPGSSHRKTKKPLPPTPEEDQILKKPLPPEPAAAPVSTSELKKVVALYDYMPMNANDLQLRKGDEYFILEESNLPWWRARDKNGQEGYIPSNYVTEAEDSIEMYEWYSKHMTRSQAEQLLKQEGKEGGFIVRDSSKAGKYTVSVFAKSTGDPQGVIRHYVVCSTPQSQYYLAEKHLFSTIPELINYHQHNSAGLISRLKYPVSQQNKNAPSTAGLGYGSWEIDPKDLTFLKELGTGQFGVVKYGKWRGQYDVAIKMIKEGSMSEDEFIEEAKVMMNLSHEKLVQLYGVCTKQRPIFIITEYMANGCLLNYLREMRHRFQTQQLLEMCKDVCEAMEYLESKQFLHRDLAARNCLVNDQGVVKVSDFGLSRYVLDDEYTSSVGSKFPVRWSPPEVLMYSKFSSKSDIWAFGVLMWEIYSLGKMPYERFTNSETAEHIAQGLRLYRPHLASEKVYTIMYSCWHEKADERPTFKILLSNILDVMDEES
T1 sequence (Q06187 whole entry): as above
T3 sequence (P15170 whole entry): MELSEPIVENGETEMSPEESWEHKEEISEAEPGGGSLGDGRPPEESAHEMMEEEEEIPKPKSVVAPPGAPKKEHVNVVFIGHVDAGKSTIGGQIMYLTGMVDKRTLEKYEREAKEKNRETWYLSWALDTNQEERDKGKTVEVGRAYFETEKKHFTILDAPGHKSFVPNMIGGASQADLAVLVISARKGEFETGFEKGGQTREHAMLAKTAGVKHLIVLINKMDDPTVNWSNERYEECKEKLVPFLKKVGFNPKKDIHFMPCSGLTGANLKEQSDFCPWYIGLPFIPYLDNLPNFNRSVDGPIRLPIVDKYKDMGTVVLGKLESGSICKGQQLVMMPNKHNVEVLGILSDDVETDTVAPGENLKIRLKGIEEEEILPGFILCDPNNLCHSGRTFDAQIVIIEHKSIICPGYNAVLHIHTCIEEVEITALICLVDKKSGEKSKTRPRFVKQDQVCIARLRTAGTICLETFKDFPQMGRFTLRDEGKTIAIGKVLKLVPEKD
T3 sequence (Q96SW2 whole entry): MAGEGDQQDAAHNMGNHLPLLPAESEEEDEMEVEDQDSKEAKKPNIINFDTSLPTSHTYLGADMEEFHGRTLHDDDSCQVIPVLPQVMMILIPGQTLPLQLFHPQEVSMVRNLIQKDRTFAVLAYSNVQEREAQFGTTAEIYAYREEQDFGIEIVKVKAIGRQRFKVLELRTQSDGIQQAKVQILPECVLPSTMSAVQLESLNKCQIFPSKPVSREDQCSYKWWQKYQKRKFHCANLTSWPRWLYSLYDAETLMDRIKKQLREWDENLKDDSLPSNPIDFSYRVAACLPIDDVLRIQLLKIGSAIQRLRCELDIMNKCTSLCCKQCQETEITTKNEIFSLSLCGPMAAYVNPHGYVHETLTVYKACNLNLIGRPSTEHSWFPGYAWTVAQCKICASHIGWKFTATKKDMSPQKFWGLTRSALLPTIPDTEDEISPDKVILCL
T3 sequence (Q16531 whole entry partner): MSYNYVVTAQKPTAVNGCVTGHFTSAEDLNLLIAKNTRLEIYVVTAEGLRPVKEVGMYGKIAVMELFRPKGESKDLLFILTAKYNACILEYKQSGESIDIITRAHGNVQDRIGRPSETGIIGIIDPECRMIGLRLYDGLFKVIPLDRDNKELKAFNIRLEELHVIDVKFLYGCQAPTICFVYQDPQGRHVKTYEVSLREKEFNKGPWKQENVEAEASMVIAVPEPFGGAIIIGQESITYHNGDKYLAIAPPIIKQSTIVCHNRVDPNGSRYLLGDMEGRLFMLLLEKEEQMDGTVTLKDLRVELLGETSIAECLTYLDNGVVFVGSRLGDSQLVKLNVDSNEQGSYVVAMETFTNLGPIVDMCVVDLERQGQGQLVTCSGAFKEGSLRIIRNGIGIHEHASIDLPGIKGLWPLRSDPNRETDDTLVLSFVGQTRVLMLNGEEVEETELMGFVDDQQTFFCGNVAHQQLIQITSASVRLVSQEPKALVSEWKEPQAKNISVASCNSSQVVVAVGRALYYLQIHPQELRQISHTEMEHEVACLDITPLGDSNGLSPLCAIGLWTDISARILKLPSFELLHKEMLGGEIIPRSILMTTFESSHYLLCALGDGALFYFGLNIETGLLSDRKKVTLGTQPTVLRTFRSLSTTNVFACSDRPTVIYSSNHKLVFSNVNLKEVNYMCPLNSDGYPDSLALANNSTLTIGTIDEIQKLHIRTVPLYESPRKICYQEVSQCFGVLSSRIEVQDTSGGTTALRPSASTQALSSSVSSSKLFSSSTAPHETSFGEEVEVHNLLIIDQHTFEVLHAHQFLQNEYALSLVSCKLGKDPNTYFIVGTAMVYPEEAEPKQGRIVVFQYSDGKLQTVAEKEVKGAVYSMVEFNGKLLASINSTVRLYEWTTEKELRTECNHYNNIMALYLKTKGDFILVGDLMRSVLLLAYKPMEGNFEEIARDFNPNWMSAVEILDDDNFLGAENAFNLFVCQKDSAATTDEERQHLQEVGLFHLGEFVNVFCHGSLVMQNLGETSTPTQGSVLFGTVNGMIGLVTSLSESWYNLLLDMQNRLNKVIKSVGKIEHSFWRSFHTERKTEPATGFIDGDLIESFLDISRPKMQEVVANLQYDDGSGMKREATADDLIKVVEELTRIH
T4 sequence (P35991 whole entry): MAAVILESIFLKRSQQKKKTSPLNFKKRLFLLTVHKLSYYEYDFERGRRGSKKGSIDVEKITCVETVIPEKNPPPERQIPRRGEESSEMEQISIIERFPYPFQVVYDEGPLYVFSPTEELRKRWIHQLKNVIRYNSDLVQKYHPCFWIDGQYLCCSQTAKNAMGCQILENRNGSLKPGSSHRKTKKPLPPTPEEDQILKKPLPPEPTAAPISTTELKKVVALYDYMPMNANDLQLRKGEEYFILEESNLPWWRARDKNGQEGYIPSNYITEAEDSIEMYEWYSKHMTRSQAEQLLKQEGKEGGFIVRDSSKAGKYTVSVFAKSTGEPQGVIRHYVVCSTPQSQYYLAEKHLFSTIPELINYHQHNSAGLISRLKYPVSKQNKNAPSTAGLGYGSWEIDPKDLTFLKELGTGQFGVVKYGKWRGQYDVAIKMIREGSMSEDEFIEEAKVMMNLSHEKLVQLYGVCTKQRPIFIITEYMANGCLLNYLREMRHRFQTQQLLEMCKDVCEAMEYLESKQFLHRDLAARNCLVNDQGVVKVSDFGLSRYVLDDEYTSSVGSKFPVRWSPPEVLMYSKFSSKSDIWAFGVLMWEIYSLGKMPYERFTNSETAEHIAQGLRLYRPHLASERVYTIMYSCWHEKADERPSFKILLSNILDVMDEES

- competition with PS-2 induced BTK degradation (BTK ligand) (BTK [1]): cannot completely compete out
Compound: CN1CCN(c2ccc(Nc3nccc(Oc4ccccc4)n3)cc2)CC1 [PS2W]

Compound: C=CC(=O)Nc1cccc(Oc2nc(Nc3ccc(N4CCN(C)CC4)cc3)nc3ccoc23)c1 [Poseltinib]
- IC50 (His-BTK): 1.21 nM
- IC50 (His-BTK; listed as poseltinib): 1.1 nM and 1.2 nM
- binding to BTK (result in words) (His-BTK): binding affinity in the nM range
- IC50 (MOLM-14 cells): 2900 nM

- GSPT1 degradation (result in words) (GSPT1): potent GSPT1 degrader
Compound: Cc1ccc(NC(=O)NCc2ccc3c(c2)CN(C2CCC(=O)NC2=O)C3=O)cc1Cl (centres unmarked) [CC-885, reference compound]

Compound: O=C1CCC(N2C(=O)c3cccc(NCC(=O)N4CCN(c5ccc(Nc6nc(Oc7ccccc7)c7occc7n6)cc5)CC4)c3C2=O)C(=O)N1 (centres unmarked) [PS-1, 2-(2,6-Dioxopiperidin-3-yl)-4-((2-oxo-2-(4-(4-((4-phenoxyfuro[3,2-d]pyrimidin-2-yl)amino)phenyl)piperazin-1-yl)ethyl)amino)isoindoline-1,3-dione]
- binding to BTK (result in words) (His-BTK): almost no binding to BTK
- IC50 (MM.1S cells): 3 nM
- BTK degradation (result in words) (BTK [2]): very weak or no BTK degradation
- IC50 (Mino cells): 16 nM
- BTK degradation (result in words) (BTK [3]): very weak or no BTK degradation
